According to patent US11225475B2, “Substituted pyridines as inhibitors of histone deacetylase” (Alkermes, Inc., priority 2017, dated 2022):

Key:
[1] = tested on: human erythroid (CFU-E, BFU-E) progenitors; experiment: Erythroid CFU assay (human bone marrow clonogenic progenitors); assay type: cell-based; settings: for Erythroid % control remaining @ 10 uM dose: 14 days in culture
Protocol: (§1) Clonogenic progenitors of human erythroid (CFU-E, BFU-E), granulocyte-monocyte (CFU-GM) and multipotential (CFU-GEMM) lineages were assessed in a semi-solid methylcellulose-based media formulation containing rhIL-3 (10 ng/mL), rhGM-SCF (10 ng/mL), rhSCF (50 ng/mL) and Epo (3 U/mL).
(§2) Normal human bone marrow light density cells derived from normal bone marrow (NorCal Biologics, California) and qualified at ReachBio, were stored in the gaseous phase of liquid nitrogen (−152° C.) until required for the assay. On the day of the experiment, the cells were thawed rapidly, the contents of each vial was diluted in 10 mL of Iscove's modified Dulbecco's medium containing 10% fetal bovine serum (IMDM+10% FBS) and washed by centrifugation (approximately 1200 r.p.m. for 10 minutes, room temperature). The supernatant was discarded and the cell pellets resuspended in a known volume of IMDM+10% FBS. A cell count (3% glacial acetic acid) and viability assessment (trypan blue exclusion test) was performed for the bone marrow sample.
(§3) On the day of the experiment, the compounds were dissolved in DMSO to a stock concentration of 10 mM. Serial dilutions were prepared from the stock concentration to achieve concentrations of 2 and 0.4 mM. When added to the methylcellulose-based media at 1:1000 (v/v), the final test concentrations of 10, 2 and 0.4 μM were achieved. Additionally, 5-FU was evaluated at 1.0, 0.1 and 0.01 μg/mL.
(§4) Clonogenic progenitors of the human erythroid (CFU-E and BFU-E) and myeloid (CFU-GM) lineages were set up in the methylcellulose-based media formulations described above. All compounds were added to the medium to give the final desired concentrations ([…] 5-Fluorouracil (Sigma Aldrich) was used as a positive control for progenitor proliferation (inhibition of colony growth) and was introduced to the human bone marrow cultures at 1.0, 0.1, and 0.01 μg/mL. Solvent control cultures (containing no compound but 0.1% DMSO) as well as standard controls (containing no compound and no DMSO) were also initiated.
(§5) Human myeloid and erythroid progenitor assays were initiated at 2.0×10^4 cells per culture. Following 14 days in culture, myeloid and erythroid colonies were assessed microscopically and scored by trained personnel. The colonies were divided into the following categories based on size and morphology: CFU-E, BFU-E, CFU-GM and CFU-GEMM.
(§6) The mean±one standard deviation of three replicate cultures was calculated for progenitors of each category (CFU-E, BFU-E, etc.). Two-tailed t-tests were performed to assess if there was a difference in the number of colonies generated between solvent control and treated cultures. Due to the potential subjectivity of colony enumeration, a p value of less than 0.01 is deemed significant. To calculate the concentration of 50% inhibition of colony growth (IC50) for each compound, a dose response curve was generated plotting the log of the compound concentration versus the percentage of control colony growth using XLfit software (IDBS). The concentration of 50% inhibition of colony growth (IC50) was calculated based on the sigmoid curve fit using Dose-Response, One-Site Model formula: y=A+[(B−A)/(1+((C/x)^D))], where A=the initial value (baseline response), B=maximum response, C=center (drug concentration that provokes a response halfway between A and B) and D=slope of the curve at midpoint. Further, plots and additional dose response curves were generated using GraphPad Prism 7.0.
(§7) Erythroid (CFU-E and BFU-E), myeloid (CFU-GM) and multi-potential (CFU-GEMM) colony enumeration was performed by trained personnel. The distribution of colony types as well as general colony and cellular morphology was analyzed. For statistical analysis colony numbers in compound treated cultures were compared to the solvent control cultures. […] The experiment was used to evaluate the potential effect of test compounds on human erythroid and myeloid progenitor proliferation in a methylcellulose-based medium. […]

[2] = tested on: human myeloid (CFU-GM) progenitors; experiment: Myeloid CFU assay (human bone marrow clonogenic progenitors); assay type: cell-based; settings: 14 days in culture
Protocol: as §1, §2, §3, §4, §5, §6, §7

HDAC2 [3] = biological target: T1, HDAC2 (Homo sapiens (Human), UniProt Q92769); experiment: HDAC2 enzymatic assay (deacetylation of peptide substrate, Caliper LabChip); assay type: biochemical; settings: reaction time 17 hours, 25° C.
Protocol: (§8) The following describes an assay protocol for measuring the deacetylation of a peptide substrate by the enzymes HDAC2 or HDAC1. Enzyme, substrate, and cofactors are combined in a well of a microtiter plate and incubated for […] at 25° C. At the end of the incubation, the reaction is quenched by the addition of an SDS-containing buffer. Substrate and product are separated and quantified electrophoretically using the microfluidic-based LabChip 3000 Drug Discovery System from Caliper Life Sciences. The peptide substrate used in this assay is FAM-TSRHK(AC)KL-CONH2 (FAM is carboxyfluorescein). Peptide should be >98% purity by Capillary Electrophoresis. • 1. To a well of a 384-well plate, add 5 μL of 2× enzyme buffer. Using Labcyte Echo 550, add 100 nl compound. Enzyme and compound may be pre-incubated at this time if desired. • 2. Add 5 μL of 2× substrate buffer. • 3. Incubate plate at 25° C. for 17 hours. • 4. Terminate reaction by adding 40 μL of 1.55× stop buffer. • 5. Create job on a Caliper LabChip® 3000 Drug Discovery System. • 6. Load the plate and start electrophoresis using blue laser (480 nm) for excitation and green CCD (520 nm) for detection (CCD2). Reaction time=17 hours; Reaction temperature=25° C.
(§9) 1% DMSO (from compound) 1 μM FAM-TSRHK(AC)KL-CONH2 5 nM HDAC Enzyme (specific activity may vary from lot-to-lot, and enzyme concentration may need to be adjusted to yield ˜10-20% conversion of substrate to product).
(§10) Substrate and product peptides present in each sample are separated electrophoretically using the LabChip 3000 capillary electrophoresis instrument. As substrate and product peptides are separated, two peaks of fluorescence are observed. Change in the relative fluorescence intensity of the substrate and product peaks is the parameter measured, reflecting enzyme activity. Capillary electrophoregramms (RDA acquisition files) are analyzed using HTS Well Analyzer software (Caliper Life Sciences). The enzyme activity in each sample is determined as the product to sum ratio (PSR):P/(S+P), where P is the peak height of the product peptide and S is the peak height of the substrate peptide. For each compound, enzyme activity is measured at various concentrations (12 concentrations of compound spaced by 3× dilution intervals). Negative control samples (0%-inhibition in the absence of inhibitor) and positive control samples (100%-inhibition, in the presence of 20 mM EDTA) are assembled in replicates of four and are used to calculate %-inhibition values for each compound at each concentration. Percent inhibition (Pinh) is determined using following equation: Pinh=(PSR0%−PSRinh)/(PSR0%−PSR100%)*100, where PSRinh is the product sum ratio in the presence of inhibitor, PSR0% is the average product sum ration in the absence of inhibitor and PSR100% is the average product sum ratio in 100%-inhibition control samples.
(§11) The IC50 values of inhibitors are determined by fitting the inhibition curves (Pinh versus inhibitor concentration) by 4 parameter sigmoidal dose-response model using XLfit 4 software (MDS).

HDAC1 = HDAC1 (Homo sapiens (Human), UniProt Q13547); experiment: HDAC1 enzymatic assay (deacetylation of peptide substrate, Caliper LabChip); assay type: biochemical; settings: reaction time 17 hours, 25° C.
Protocol: as §8, §9, §10, §11

HDAC2 [4] = biological target: T1, HDAC2; experiment: HDAC2 enzymatic inhibition assay in SH-SY5Y cell lysate (HDAC-Glo 2); assay type: cell-based; settings: SH-SY5Y cells, five hours incubation
Protocol: SH-SY5Y cells (Sigma) were cultured in Eagle's Modified Essential Medium supplemented with 10% fetal bovine serum and pen/strep. Twenty-four hours prior to compound dosing 20 uL of cells were plated in white 384 well plates at a density of 1,500 cells/well. Compounds were serially diluted in neat DMSO and then diluted 1:100 v/v into media without FBS and mixed. Media was removed from the plated cells and the diluted compounds in serum free media (1% v/v final DMSO) were added and incubated at 37.0 for five hours. Ten uL of HDAC-Glo 2 reagent with 0.1% Triton X-100 was then added, the plate was mixed and allowed to develop at room temperature for 100 minutes. Plates were then read with a Spectramax LMax luminometer employing a 0.4s integration time. Dose response curves were constructed with normalized data where CI-994 at 100 uM was defined as 100% inhibition and DMSO alone as 0% inhibition.

T1 sequence (Q92769 whole entry): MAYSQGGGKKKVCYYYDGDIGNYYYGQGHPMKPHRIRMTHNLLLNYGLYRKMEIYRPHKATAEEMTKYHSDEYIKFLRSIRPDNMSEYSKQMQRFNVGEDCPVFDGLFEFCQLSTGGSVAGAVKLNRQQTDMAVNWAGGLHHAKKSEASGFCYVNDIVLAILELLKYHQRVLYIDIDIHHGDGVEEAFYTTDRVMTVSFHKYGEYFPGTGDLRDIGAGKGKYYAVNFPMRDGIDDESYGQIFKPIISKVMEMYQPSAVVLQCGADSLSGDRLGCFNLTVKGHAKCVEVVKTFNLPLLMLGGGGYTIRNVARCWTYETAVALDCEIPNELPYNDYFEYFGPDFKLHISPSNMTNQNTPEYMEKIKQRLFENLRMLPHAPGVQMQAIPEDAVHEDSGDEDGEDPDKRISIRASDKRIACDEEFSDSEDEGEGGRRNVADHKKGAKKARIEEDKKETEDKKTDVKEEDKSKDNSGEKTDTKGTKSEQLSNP
Sequence of HDAC1 (Q13547 whole entry): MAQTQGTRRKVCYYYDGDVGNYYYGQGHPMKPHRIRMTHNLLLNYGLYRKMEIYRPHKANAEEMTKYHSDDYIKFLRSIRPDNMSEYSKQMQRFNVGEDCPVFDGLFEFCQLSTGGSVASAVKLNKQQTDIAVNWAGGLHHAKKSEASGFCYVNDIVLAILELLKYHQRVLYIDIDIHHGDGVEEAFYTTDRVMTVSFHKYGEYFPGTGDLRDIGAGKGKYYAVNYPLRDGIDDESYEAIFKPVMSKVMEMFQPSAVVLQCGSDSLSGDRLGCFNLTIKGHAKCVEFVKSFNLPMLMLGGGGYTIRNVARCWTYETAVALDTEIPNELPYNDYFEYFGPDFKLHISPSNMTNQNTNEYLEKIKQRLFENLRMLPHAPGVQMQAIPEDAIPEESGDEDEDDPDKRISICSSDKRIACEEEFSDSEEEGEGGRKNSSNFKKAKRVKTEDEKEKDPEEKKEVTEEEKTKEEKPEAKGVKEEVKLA

Row | Structure (SMILES) | Erythroid % control remaining @ 10 uM dose [1] [%] | Myeloid % control remaining @ 10 uM dose [2] [%] | IC50 (HDAC2 [3]) [nM] | IC50 (HDAC1) [nM] | IC50 (HDAC2 [4]) [nM] | inhibitory effects as positive control for toxicity ([1]; erythroid and myeloid progenitor assays, 1.0, 0.1 and 0.01 μg/mL)
1 | O=c1[nH]cc(F)c(=O)[nH]1 [Compound 5-FU, 5-Fluorouracil, reference compound] |  |  |  |  |  | exactly as expected
2 | COCCn1cc2c(n1)CN(C(=O)Nc1nc(-c3ccc(F)cc3)ccc1N)C2 [Comparator 4, reference compound] | 28 | 39 |  |  |  | 
3 | COCc1ccc2c(n1)CN(C(=O)Nc1nc(-c3ccc(F)cc3F)ccc1N)C2 [Compound 2] | 62 | 92 | 500 to 5000 | 100 to 500 | 1000 to 1500 | 
4 | Cc1cc2c(cn1)CN(C(=O)Nc1nc(-c3ccc(F)cc3)ccc1N)C2 [Comparator 5, reference compound] | 25.7 | 66.1 |  |  |  | 
5 | Cc1ncc2c(n1)CN(C(=O)Nc1nc(-c3ccc(F)cc3F)ccc1N)C2 [Compound 5] | 69 | 82 | 500 to 5000 | 500 to 5000 | 1000 to 1500 | 
6 | CCn1cc2c(n1)CN(C(=O)Nc1nc(-c3ccc(F)cc3F)ccc1N)C2 [Compound 10] | 38 | 77 | 100 to 500 | 100 to 500 | 100 to 1000 | 
7 | CCn1cc2c(n1)CN(C(=O)Nc1nc(-c3ccc(F)cc3)ccc1N)C2 [Comparator 1, reference compound] | 22 | 34 |  |  |  | 
8 | Nc1ccc(-c2ccc(F)cc2F)nc1NC(=O)N1Cc2cnc(CN3CC(F)C3)cc2C1 [Compound 4] | 62 | 102 | 500 to 5000 | 100 to 500 | 1000 to 1500 | 
9 | COCc1cc2c(cn1)CN(C(=O)Nc1nc(-c3ccc(F)cc3)ccc1N)C2 [Comparator 6, reference compound] | 22.9 | 58.9 |  |  |  | 

Continued, in another order:

Row | Erythroid % control remaining @ 10 uM dose [1] [%] | Myeloid % control remaining @ 10 uM dose [2] [%] | IC50 (HDAC2 [3]) [nM] | IC50 (HDAC1) [nM] | IC50 (HDAC2 [4]) [nM] | Structure (SMILES) | inhibitory effects as positive control for toxicity ([1]; erythroid and myeloid progenitor assays, 1.0, 0.1 and 0.01 μg/mL)
10 | 45 | 103 |  |  |  | Cc1nc2c(s1)CN(C(=O)Nc1nc(-c3ccc(F)cc3)ccc1N)C2 [Comparator 2, reference compound] | 
11 | 33 | 70 |  |  |  | COCc1ccc2c(n1)CN(C(=O)Nc1nc(-c3ccc(F)cc3)ccc1N)C2 [Comparator 8, reference compound] | 
12 | 35 | 82 |  |  |  | Nc1ccc(-c2ccc(F)cc2)nc1NC(=O)N1Cc2cc(CN3CC(F)C3)cnc2C1 [Comparator 7, reference compound] | 
13 | 18 | 9 |  |  |  | COCCn1cc2c(n1)CN(C(=O)Nc1nc(-c3cccs3)ccc1N)C2 [Comparator 3, reference compound] | 
14 | 69 | 105 | 500 to 5000 | 100 to 500 | 100 to 1000 | CCc1ncc2c(n1)CN(C(=O)Nc1nc(-c3ccc(F)cc3F)ccc1N)C2 [Compound 7] | 
15 | 60 | 79 |  |  |  | CCc1ncc2c(n1)CN(C(=O)Nc1nc(-c3ccc(F)cc3)ccc1N)C2 [Comparator 9, reference compound] | 
16 | 53 | 100 | 100 to 500 | 100 to 500 | 100 to 1000 | Cc1cc2c(cn1)CN(C(=O)Nc1nc(-c3ccc(F)cc3F)ccc1N)C2 [Compound 1] | 
17 | 89 | 109 | 500 to 5000 | 100 to 500 | 100 to 1000 | Cc1nc2c(s1)CN(C(=O)Nc1nc(-c3ccc(F)cc3F)ccc1N)C2 [Compound 3] | 
18 | 72 | 75 | 500 to 5000 | 100 to 500 | 100 to 1000 | COCCn1cc2c(n1)CN(C(=O)Nc1nc(-c3ccccc3F)ccc1N)C2 [Compound 8] | 
19 | 69 | 82 | 500 to 5000 | 500 to 5000 | > 1500 | COCCn1cc2c(n1)CN(C(=O)Nc1nc(-c3ccc(Cl)s3)ccc1N)C2 [Compound 6] | 
20 | 87 | 102 | 500 to 5000 | 100 to 500 | 100 to 1000 | COCc1cc2c(cn1)CN(C(=O)Nc1nc(-c3ccccc3F)ccc1N)C2 [Compound 9] | 
